Measured values reported in ChEMBL document CHEMBL3045938, “Methionine-induced phytoalexin production in rice leaves” (2000).
Active and inactive are the calls of the source. The calls are words filed in the database; no cut-off is given here.

Columns and labels:
Format in all cases: functional, organism-based
Oryza sativa [1] = assay: Induction of disease resistance in Oryza sativa Nipponbare (rice) assessed as increase in sakuranetin level in press-injured leaves at 0.1% after 48 hr by HPLC-MS-MS analysis
Oryza sativa [2] = assay: Induction of disease resistance in Oryza sativa Nipponbare (rice) assessed as increase in sakuranetin level in press-injured leaves at 10 mM after 48 hr by HPLC-MS-MS analysis
Oryza sativa [3] = assay: Induction of disease resistance in Oryza sativa Nipponbare (rice) assessed as increase in momilactone level in press-injured leaves at 10 mM after 48 hr by HPLC-MS-MS analysis
Oryza sativa [4] = assay: Induction of disease resistance in Oryza sativa Nipponbare (rice) assessed as increase in sakuranetin level in uninjured leaves at 0.5 mM pretreated with water 24 hr prior to compound treatment measured after 8 to 10 hr by HPLC-MS-MS analysis relative to control
Oryza sativa [5] = assay: Induction of disease resistance in Oryza sativa Nipponbare (rice) assessed as increase in jasmonic acid level in press-injured leaves at 0.5 mM after 1 to 2 hr by HPLC-MS-MS analysis relative to control
Oryza sativa [6] = assay: Induction of disease resistance in Oryza sativa Nipponbare (rice) assessed as increase in sakuranetin level in press-injured leaves at 0.5 mM pretreated with water 24 hr prior to compound treatment measured after 8 to 10 hr by HPLC-MS-MS analysis relative to control
Oryza sativa [7] = assay: Induction of disease resistance in Oryza sativa Nipponbare (rice) assessed as increase in momilactone level in uninjured leaves at 0.5 mM pretreated with water 24 hr prior to compound treatment measured after 8 to 10 hr by HPLC-MS-MS analysis relative to control
Oryza sativa [8] = assay: Induction of disease resistance in Oryza sativa Nipponbare (rice) assessed as increase in momilactone level in press-injured leaves at 0.5 mM pretreated with water 24 hr prior to compound treatment measured after 8 to 10 hr by HPLC-MS-MS analysis relative to control
Oryza sativa [9] = assay: Induction of disease resistance in Oryza sativa Nipponbare (rice) assessed as increase in jasmonic acid level in press-injured leaves at 0.5 mM pretreated with water 24 hr prior to compound treatment measured after 6 hr by HPLC-MS-MS analysis relative to control

## C[S+](CC[C@H](N)C(=O)[O-])C[C@H]1O[C@@H](n2cnc3c(N)ncnc32)[C@H](O)[C@@H]1O (stereo not given in full)
Oryza sativa [1]
  Activity: inactive

## O=P(O)(O)CCCl
Oryza sativa [2]
  Activity: Active
Oryza sativa [3]
  Activity: inactive

## CUPRIC CHLORIDE
Oryza sativa [4]
  Activity: inactive
Oryza sativa [5]
  Activity: inactive
Oryza sativa [6]
  Activity: Active
Oryza sativa [7]
  Activity: inactive
Oryza sativa [8]
  Activity: Active
Oryza sativa [9]
  Activity: Active

## N[C@@H](Cc1ccccc1)C(=O)O
Oryza sativa [1]
  Activity: inactive
